US20100130945A1, “TREATMENT OF TISSUE VIA APPLICATION OF MAGNETIC FIELD” (priority 2006, published 2010)

System: isolated cardiac myocytes
Experiment: Ca2+ transients (indo-1 fluorescence ratio) in isolated cardiac myocytes in culture, with drug and 16 Hz alternating magnetic field
Assay type: cell-based, rat
Description: Cardiac myocytes were extracted in order to study intracellular free calcium ([Ca^2+]i) shifts as a result of exposure to alternating magnetic field. This was estimated from indo-1 fluorescence using the ratio method. […] The hearts were minced and then gently agitated in a solution of proteolytic enzymes, RDB. The RDB was diluted 1:100 in Ca^2+ and Mg^2+ free PBS at 25° C. for a few cycles of 10 minutes each, Dulbecco's modified Eagle's medium (DMEM) supplemented with inactivated 10% horse serum (Biological Industries, Kibbutz Beit Haemek, Israel), and 0.5% chick embryo extract was added to the supernatant suspensions containing dissociated cells. The mixture was centrifuged at 300 g for 5 minutes. The supernatant phase was discarded and the cells were resuspended in the same medium. The suspensions of the cells were diluted to 1.0×10^6 cells/ml and were placed in 35-mm plastic culture dishes on collagen/gelatin coated cover glasses. The culture was incubated in a humidified atmosphere of 5% CO2, 95% air at 37° C. All experiments were performed at day 4 in culture. In a second set of experiments the specificity of the myocyte ion channels (KATP) was tested by inducing exposure alternating magnetic field of 16 Hz, that were delivered for 10 minutes of base line (n=10). Following baseline recording, the channels were blocked by the addition to the dish 5 μM of Glibenclamide and alternating magnetic field was delivered for an additional 20 minutes. In the third setup of the experiment the amount of 5 μM of Glibenclamide was primarily added (n=10), to be followed by exposure to alternating magnetic field of 20 min. In the fourth phase of the experimental setup 3 μM of Nicorandil, a potassium channel opener (KCO) were added (n=10), following 10 minutes, alternating magnetic field was exposure was introduced for 20 minutes. In the fifth phase of the experiment alternating magnetic field was applied for 20 minutes followed by introduction of 3 μM of Nicorandil (n=5). Intracellular free calcium concentration [Ca^2+], was estimated from indo-1 fluorescence using the ratio method previously described before by Grynkiewicz et al (1985). Following incubation, the cells were rinsed twice with glucose enriched PBS and transferred to a chamber on the stage of a Zeiss inverted epifluorescent microscope. Indo-1-AM was excited at 355 nm and the emitted light was then split by a dichroic mirror to two photomultipliers, with input filters at 405 and 495 nm. The fluorescence ratio of 405/495 nm, which is proportional to [Ca2+] was fed into a computer program. The time integral of Ca^2+ Influx was determined as area under the curve via a program, which gives the integral during any specified time window. From this value the baseline offset, measured at the systolic and diastolic phase, were subtracted. Baseline data from calcium transients were normalized to 100 percent and all values were presented as percent change from baseline. Mean and SD were calculated. A P≦0.05 was considered statistically significant.

SMILES: O=C(NCCO[N+](=O)[O-])c1cccnc1 [nicorandil]
- change of amplitude of Ca2+ transients (narrowing) with nicorandil (3 μM Nicorandil added, before magnetic field, percent change from baseline, FIG. 9B): −58%±7%
- change of amplitude of Ca2+ transients (narrowing) with nicorandil following 20 minutes of alternating magnetic field (3 μM Nicorandil then 20 min field of 16 Hz, 80 nT, n=4, FIG. 9C): −63%±3%
- combination of magnetic field exposure and KCO administration (nicorandil plus alternating magnetic field, 15.95 Hz, FIGS. 9A-C): synergistic effect

SMILES: COc1ccc(Cl)cc1C(=O)NCCc1ccc(S(=O)(=O)NC(=O)NC2CCCCC2)cc1 [glibenclamide]
- change of amplitude of Ca2+ transients (widening) with glibenclamide (5 μM Glibenclamide added, before magnetic field, percent change from baseline, n=10, FIG. 8B): +30%±9%
- change of amplitude of Ca2+ transients (narrowing) with glibenclamide following 20 minutes of alternating magnetic field (5 μM Glibenclamide then 20 min field of 16 Hz, 80 nT, n=10, FIG. 8C): −24%±6%
- effect on calcium ions efflux from myocytes in cultures following exposure to 16 Hz magnetic field (low intensities of 16 Hz magnetic field, KATP channel blocker): counteracting effect
